According to patent publication US11325955B2, “Stabilized anti-microbial peptides for the treatment of antibiotic-resistant bacterial infections” (priority 2017, dated 2022):
≈ marks a conversion by molar mass, not a printed value. Like-named read-outs stand apart in the source and are kept apart here. Positions of bridges follow the written chain, without caps; N, C: chain ends. Non-standard residues stand in square brackets, D forms with d. Residues, ends and D or L forms follow the SMILES beside them. S5 = C=CCCC[C@](C)(N)C(=O)O; Nle = CCCC[C@H](N)C(=O)O

Tests used:
[1] = test system: A baumannii; format: cell-based
Protocol: (§1) The following microbroth dilution protocol was adapted to determine the minimum inhibitory concentration (MIC) of each peptide. First, Mueller-Hinton broth (MHB) was passed through an anion exchange column to remove polyanionic species and generate refined MHB. […] Briefly, bacterial cells were grown overnight in refined MHB at 37° C. and then diluted and allowed to grow again for several hours. Serial dilutions of peptide stocks in water (10 μl) were prepared using clear round-bottom polypropylene 96-well plates. Then 90 μl of bacteria in refined MHB was added to give a final inoculum of 5×10^5 CFU/ml. The plates were then covered with porous tape to reduce evaporation, and incubated for 20-24 hours at 37° C. The MIC is the minimum peptide concentration at which no visible growth was observed.

[2] = test system: B cereus; format: cell-based
Protocol: as §1

[3] = test system: E coli; format: cell-based
Protocol: as §1

[4] = test system: P aeruginosa; format: cell-based
Protocol: as §1

[5] = test system: S aureus; format: cell-based
Protocol: as §1

[6] = test system: primary human renal proximal tubule epithelial cells (pRPTECs)
Protocol: In one embodiment, pRPTECs are seeded at a density of 10,000 cells per well on 96 well plates and incubated for 48 hours at 37° C. Cells are then treated with different concentrations of the StAMP and incubated for another 24-to-48 hour period. Cell viability is then determined and/or lactate dehydrogenase (LDH) release is measured.
Briefly, pRPTECs in complete growth cell medium were seeded in a 96 well plate at a density of 10,000 cells per well and incubated at 37° C. for 48 hours. Complete medium was then removed and replaced with a toxicity assay medium to which various concentrations of StAMP were added. Cells were then further incubated for 24 to 48 hours after which cell medium was collected and assayed for the presence of Lactate Dehydrogenase (LDH) using a Cytotoxicity Detection Kit (LDH) (Roche).

[7] = test system: human red blood cells (RBCs); test: Hemolytic activity assay; format: cell-based; settings: peptide at 25 μg/ml, 1 hour at 37° C.
Protocol: For the determination of hemolytic activity, human blood samples were centrifuged to isolate red blood cells (RBCs), which are then washed and suspended in phosphate-buffered saline to yield a 1% (v/v) suspension. The suspension was then added to serial dilutions of peptide stocks in water in clear round-bottom polypropylene 96-well plates and the plates were incubated for 1 hour at 37° C. After incubation, the plates were centrifuged and the supernatant was isolated to determine the amount of hemoglobin released using a spectrophotometer (570 nm), according to the equation: % Hemolysis=(Treated Absorbance−Untreated Control Absorbance)/(1% Triton-X100 Treated Absorbance−Untreated Control Absorbance). The minimum hemolytic concentration (MHC) is the peptide concentration at which there is less than 1% hemoglobin release.

[8] = test system: E. coli clinical isolates that harbor the MCR-1 plasmid; format: cell-based
Protocol: (§2) StAMPs were screened against a panel of MDR clinical samples obtained from the Antimicrobial Resistance Isolate Bank of the Centers for Disease Control and Prevention (Atlanta, Ga.).
as §1
(§3) The first three StAMPs of Table 2 in Example 3 were then tested against 39 clinical isolates of A. baumannii with various degrees of colistin resistance (Table 3, 4).

[9] = test system: Methicillin-resistant S Aureus; format: cell-based
Protocol: as §1
(§4) StAMPs Mag(i+4)2,15(A9K), Pleu(i+4)1,15(A9K) and Pleu(i+4)1,15 were also then tested against 4 clinical isolates of S. aureus of which two were methicillin-susceptible (MSSA) and two were methicillin-resistant (MRSA) (Table 5).

[10] = test system: Methicillin-susceptible S Aureus; format: cell-based
Protocol: as §1, §4

[11] = test system: A. baumannii clinical isolates; format: cell-based
Protocol: as §2, §1, §3

[12] = E. coli CDC Bank# 346, contains MCR-1 plasmid
[13] = E. coli CDC Bank# 349, contains MCR-1 plasmid

Compound: CC(C)[C@@H]1NC(=O)[C@@](C)(NC(=O)[C@H](C)NC(=O)[C@H](CCCCN)NC(=O)CNC(=O)[C@H](Cc2ccccc2)NC(=O)[C@H](CCCCN)NC(=O)[C@H](CCCCN)NC(=O)[C@H](CCCCN)NC(=O)[C@H](CO)NC(=O)[C@H](Cc2c[nH]cn2)NC(=O)[C@]2(C)CCCC=CCCC[C@](C)(NC(=O)CN)C(=O)NCC(=O)N[C@@H](CCCCN)C(=O)N[C@@H](Cc3ccccc3)C(=O)N2)CCCC=CCCC[C@@](C)(C(=O)N[C@@H](C)C(=O)N[C@@H](CCCCN)C(=O)N[C@@H](CCCCN)C(N)=O)NC(=O)[C@H](CCC(=O)O)NC(=O)CNC1=O [Mag(i+4)1,15(A9K, B21A, N22K, S23K), GXGKFXHSKKKFGKAXVGEXAKK] (H-G[S5]GKF[S5]HSKKKFGKA[S5]VGE[S5]AKK-NH2; staple 2-6, 16-20)
- MIC A baumannii [1]: 0.8 µg/mL (≈ 0.316 µM)
- MIC B cereus [2]: 50 µg/mL (≈ 19.7 µM)
- MIC E coli [3]: 1.6 µg/mL (≈ 0.632 µM)
- MIC P aeruginosa [4]: 3.1 µg/mL (≈ 1.22 µM)
- MIC S aureus [5]: >50 µg/mL
- pRPTEC lysis (% LDH release) compared to Mag(i+4)1,15(A9K) ([6]; 90 minute incubation, FIG. 2): markedly reduced lytic activity toward pRPTECs
- pRPTEC lysis (% LDH release), long-term lytic activity ([6]; 48 hours incubation, FIG. 3): lowered long-term lytic activity

Compound: CC(C)C[C@H](NC(=O)[C@H](Cc1ccc(O)cc1)NC(=O)[C@H](Cc1c[nH]cn1)NC(=O)[C@@H](NC(=O)[C@H](CC(C)C)NC(=O)[C@]1(C)CCCC=CCCC[C@](C)(NC(=O)[C@H](Cc2c[nH]cn2)NC(=O)[C@H](CCCCN)NC(=O)CNC(=O)[C@@H](NC(=O)[C@H](Cc2c[nH]cn2)NC(=O)[C@H](C)NC(=O)[C@H](CCCCN)NC(=O)[C@H](CCCCN)NC(=O)[C@H](CCCCN)NC(=O)[C@]2(C)CCCC=CCCC[C@](C)(NC(=O)CN)C(=O)NCC(=O)N[C@@H](CO)C(=O)N[C@@H](Cc3ccccc3)C(=O)N2)C(C)C)C(=O)NCC(=O)N[C@@H](CCCCN)C(=O)N[C@@H](C)C(=O)N1)[C@@H](C)O)C(N)=O [Pleu(i+4)1,15(A9K), GXGSFXKKKAHVGKHXGKAXLTHYL] (H-G[S5]GSF[S5]KKKAHVGKH[S5]GKA[S5]LTHYL-NH2; staple 2-6, 16-20)
- % Hemolysis at 25 μg/ml [7]: 16.3%
- Antimicrobial Activity MIC [8, 12]: 1.6 µg/mL
- Antimicrobial Activity MIC [8, 13]: 1.6 µg/mL
- Antimicrobial Activity MIC [9]: 3.1 µg/mL
- Antimicrobial Activity MIC [10]: 3.1 µg/mL

Compound: CCCC[C@H](NC(=O)[C@]1(C)CCCC=CCCC[C@](C)(NC(=O)[C@H](C)NC(=O)[C@H](CCCCN)NC(=O)CNC(=O)[C@H](Cc2ccccc2)NC(=O)[C@H](CCCCN)NC(=O)[C@H](CCCCN)NC(=O)[C@H](CCCCN)NC(=O)[C@H](CO)NC(=O)[C@]2(C)CCCC=CCCC[C@](C)(NC(=O)[C@@H](NC(=O)CN)[C@@H](C)CC)C(=O)N[C@@H](CCCCN)C(=O)N[C@@H](Cc3ccccc3)C(=O)N[C@@H](CC(C)C)C(=O)N2)C(=O)N[C@@H](C(C)C)C(=O)NCC(=O)N[C@@H](CCC(=O)O)C(=O)N1)C(=O)N[C@@H](CC(N)=O)C(=O)N[C@@H](CO)C(N)=O [Mag(i+4)2,15(A9K), GIXKFLXSKKKFGKAXVGEXBNS] (H-GI[S5]KFL[S5]SKKKFGKA[S5]VGE[S5][Nle]NS-NH2; staple 3-7, 16-20)
- % Hemolysis at 25 μg/ml [7]: 17.9%
- Antimicrobial Activity MIC [8, 12]: 2.2 µg/mL
- Antimicrobial Activity MIC [8, 13]: 3.1 µg/mL
- Antimicrobial Activity MIC [9]: 1.6 µg/mL
- Antimicrobial Activity MIC [10]: 1.6 µg/mL

Compound: CC(C)[C@@H]1NC(=O)[C@@](C)(NC(=O)[C@H](C)NC(=O)[C@H](CCCCN)NC(=O)CNC(=O)[C@H](Cc2ccccc2)NC(=O)[C@H](CCCCN)NC(=O)[C@H](CCCCN)NC(=O)[C@H](CCCCN)NC(=O)[C@H](CO)NC(=O)[C@H](Cc2c[nH]cn2)NC(=O)[C@]2(C)CCCC=CCCC[C@](C)(NC(=O)CN)C(=O)NCC(=O)N[C@@H](CCCCN)C(=O)N[C@@H](Cc3ccccc3)C(=O)N2)CCCC=CCCC[C@@](C)(C(=O)N[C@@H](C)C(=O)N[C@@H](CC(N)=O)C(=O)N[C@@H](CO)C(N)=O)NC(=O)[C@H](CCC(=O)O)NC(=O)CNC1=O [Mag(i+4)1,15(A9K, B21A), GXGKFXHSKKKFGKAXVGEXANS] (H-G[S5]GKF[S5]HSKKKFGKA[S5]VGE[S5]ANS-NH2; staple 2-6, 16-20)
- MIC B cereus [2]: 50 µg/mL (≈ 20.2 µM)
- MIC E coli [3]: 6.2 µg/mL (≈ 2.5 µM)
- MIC P aeruginosa [4]: 8.8 µg/mL (≈ 3.55 µM)
- MIC S aureus [5]: >50 µg/mL
- pRPTEC lysis (% LDH release) relative to Mag(i+4)1,15(A9K) ([6]; 24-hour incubation, FIG. 1): significantly attenuated pRPTEC lysis

Compound: Colistin [reference compound]
- Antimicrobial Activity MIC ([11]; A. baumannii CDC Bank# 275): 1 µg/mL
- Antimicrobial Activity MIC ([11]; A. baumannii CDC Bank# 276): 2 µg/mL
- Antimicrobial Activity MIC ([11]; A. baumannii CDC Bank# 277): 1 µg/mL
- Antimicrobial Activity MIC ([11]; A. baumannii CDC Bank# 278): 1 µg/mL
- Antimicrobial Activity MIC ([11]; A. baumannii CDC Bank# 279): 1 µg/mL
- Antimicrobial Activity MIC ([11]; A. baumannii CDC Bank# 280): 1 µg/mL
- Antimicrobial Activity MIC ([11]; A. baumannii CDC Bank# 281): 1 µg/mL
- Antimicrobial Activity MIC ([11]; A. baumannii CDC Bank# 282): 0.5 µg/mL
- Antimicrobial Activity MIC ([11]; A. baumannii CDC Bank# 283): 1 µg/mL
- Antimicrobial Activity MIC ([11]; A. baumannii CDC Bank# 284): 1 µg/mL
- Antimicrobial Activity MIC ([11]; A. baumannii CDC Bank# 285): 1 µg/mL
- Antimicrobial Activity MIC ([11]; A. baumannii CDC Bank# 286): 0.5 µg/mL
- Antimicrobial Activity MIC ([11]; A. baumannii CDC Bank# 287): 1 µg/mL
- Antimicrobial Activity MIC ([11]; A. baumannii CDC Bank# 288): >8 µg/mL
- Antimicrobial Activity MIC ([11]; A. baumannii CDC Bank# 289): 2 µg/mL
- Antimicrobial Activity MIC ([11]; A. baumannii CDC Bank# 290): 1 µg/mL
- Antimicrobial Activity MIC ([11]; A. baumannii CDC Bank# 291): 1 µg/mL
- Antimicrobial Activity MIC ([11]; A. baumannii CDC Bank# 292): 1 µg/mL
- Antimicrobial Activity MIC ([11]; A. baumannii CDC Bank# 293): 0.5 µg/mL
- Antimicrobial Activity MIC ([11]; A. baumannii CDC Bank# 294): 1 µg/mL
- Antimicrobial Activity MIC ([11]; A. baumannii CDC Bank# 295): 1 µg/mL
- Antimicrobial Activity MIC ([11]; A. baumannii CDC Bank# 296): 0.5 µg/mL
- Antimicrobial Activity MIC ([11]; A. baumannii CDC Bank# 297): 1 µg/mL
- Antimicrobial Activity MIC ([11]; A. baumannii CDC Bank# 298): 0.5 µg/mL
- Antimicrobial Activity MIC ([11]; A. baumannii CDC Bank# 299): 2 µg/mL
- Antimicrobial Activity MIC ([11]; A. baumannii CDC Bank# 300): 1 µg/mL
- Antimicrobial Activity MIC ([11]; A. baumannii CDC Bank# 301): 0.5 µg/mL
- Antimicrobial Activity MIC ([11]; A. baumannii CDC Bank# 302): 2 µg/mL
- Antimicrobial Activity MIC ([11]; A. baumannii CDC Bank# 303): >8 µg/mL
- Antimicrobial Activity MIC ([11]; A. baumannii CDC Bank# 304): 4 µg/mL
- Antimicrobial Activity MIC ([11]; A. baumannii CDC Bank# 305): 1 µg/mL
- Antimicrobial Activity MIC ([11]; A. baumannii CDC Bank# 306): 1 µg/mL
- Antimicrobial Activity MIC ([11]; A. baumannii CDC Bank# 307): >8 µg/mL
- Antimicrobial Activity MIC ([11]; A. baumannii CDC Bank# 308): 8 µg/mL
- Antimicrobial Activity MIC ([11]; A. baumannii CDC Bank# 309): 8 µg/mL
- Antimicrobial Activity MIC ([11]; A. baumannii CDC Bank# 310): 8 µg/mL
- Antimicrobial Activity MIC ([11]; A. baumannii CDC Bank# 311): 1 µg/mL
- Antimicrobial Activity MIC ([11]; A. baumannii CDC Bank# 312): 0.5 µg/mL
- Antimicrobial Activity MIC ([11]; A. baumannii CDC Bank# 313): 1 µg/mL
- Antimicrobial Activity MIC [8, 12]: 2.5 µg/mL
- Antimicrobial Activity MIC [8, 13]: 1.2 µg/mL

Compound: CC(C)C[C@H](NC(=O)[C@H](Cc1ccc(O)cc1)NC(=O)[C@H](Cc1c[nH]cn1)NC(=O)[C@@H](NC(=O)[C@H](CC(C)C)NC(=O)[C@]1(C)CCCC=CCCC[C@](C)(NC(=O)[C@H](Cc2c[nH]cn2)NC(=O)[C@H](CCCCN)NC(=O)CNC(=O)[C@@H](NC(=O)[C@H](Cc2c[nH]cn2)NC(=O)[C@H](C)NC(=O)[C@H](C)NC(=O)[C@H](CCCCN)NC(=O)[C@H](CCCCN)NC(=O)[C@]2(C)CCCC=CCCC[C@](C)(NC(=O)CN)C(=O)NCC(=O)N[C@@H](CO)C(=O)N[C@@H](Cc3ccccc3)C(=O)N2)C(C)C)C(=O)NCC(=O)N[C@@H](CCCCN)C(=O)N[C@@H](C)C(=O)N1)[C@@H](C)O)C(N)=O [Pleu(i+4)1,15, GXGSFXKKAAHVGKHXGKAXLTHYL] (H-G[S5]GSF[S5]KKAAHVGKH[S5]GKA[S5]LTHYL-NH2; staple 2-6, 16-20)
- % Hemolysis at 25 μg/ml [7]: 88.2%
- Antimicrobial Activity MIC [9]: 3.1 µg/mL
- Antimicrobial Activity MIC [10]: 3.1 µg/mL
